Test [1] addresses Epidermal growth factor receptor (Homo sapiens, UniProt P00533, L858R/T790M). In words: Inhibition of human EGFR L858R/T790M mutant using poly[Glu:Tyr] (4:1) as substrate measured in presence of [gamma-33P]ATP by radiometric assay.
In test [2] the target is Epidermal growth factor receptor (Homo sapiens, UniProt P00533, C797S/L858R/T790M). In words: Inhibition of human EGFR L858R/T790M/C797S mutant using poly[Glu:Tyr] (4:1) as substrate measured in presence of [gamma-33P]ATP by radiometric assay.
Chain of Epidermal growth factor receptor (Homo sapiens, UniProt P00533, C797S/L858R/T790M) (P00533 25-1210 T790M/C797S/L858R limits assumed): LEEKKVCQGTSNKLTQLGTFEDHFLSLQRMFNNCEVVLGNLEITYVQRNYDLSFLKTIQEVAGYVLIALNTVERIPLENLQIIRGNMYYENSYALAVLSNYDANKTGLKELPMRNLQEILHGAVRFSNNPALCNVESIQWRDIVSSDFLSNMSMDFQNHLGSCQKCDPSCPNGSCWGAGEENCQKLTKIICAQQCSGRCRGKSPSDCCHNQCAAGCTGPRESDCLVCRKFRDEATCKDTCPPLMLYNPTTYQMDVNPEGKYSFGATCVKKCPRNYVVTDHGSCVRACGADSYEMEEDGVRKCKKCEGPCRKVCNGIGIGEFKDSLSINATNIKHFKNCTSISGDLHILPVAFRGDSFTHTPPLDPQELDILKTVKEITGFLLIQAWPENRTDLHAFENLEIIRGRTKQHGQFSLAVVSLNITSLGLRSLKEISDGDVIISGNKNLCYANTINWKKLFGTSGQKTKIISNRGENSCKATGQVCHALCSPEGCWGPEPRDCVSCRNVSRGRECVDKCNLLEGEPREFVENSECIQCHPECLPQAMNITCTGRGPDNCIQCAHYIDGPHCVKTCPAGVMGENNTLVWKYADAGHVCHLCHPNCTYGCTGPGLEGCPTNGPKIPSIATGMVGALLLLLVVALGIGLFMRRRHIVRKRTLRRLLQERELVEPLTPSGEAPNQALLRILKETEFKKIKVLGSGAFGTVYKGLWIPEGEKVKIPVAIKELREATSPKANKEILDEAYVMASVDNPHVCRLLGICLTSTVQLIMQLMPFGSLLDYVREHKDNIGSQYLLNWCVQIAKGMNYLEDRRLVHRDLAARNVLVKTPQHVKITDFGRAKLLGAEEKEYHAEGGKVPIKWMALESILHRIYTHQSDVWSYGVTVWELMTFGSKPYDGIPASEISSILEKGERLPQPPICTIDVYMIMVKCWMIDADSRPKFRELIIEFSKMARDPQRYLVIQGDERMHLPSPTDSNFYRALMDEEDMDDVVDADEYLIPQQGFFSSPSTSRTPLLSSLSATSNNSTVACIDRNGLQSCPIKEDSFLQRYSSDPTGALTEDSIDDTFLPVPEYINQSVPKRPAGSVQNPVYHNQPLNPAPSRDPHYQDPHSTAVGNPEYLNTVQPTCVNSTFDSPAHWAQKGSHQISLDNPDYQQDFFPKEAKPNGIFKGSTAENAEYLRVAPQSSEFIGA

Where only a bound is given, the exact number is not on record here.

For two compounds, IC50 results are on record in ChEMBL document CHEMBL4354875, “Structural Basis for EGFR Mutant Inhibition by Trisubstituted Imidazole Inhibitors” (J Med Chem, 2020).

What is called IC50 is the concentration that gives 50% inhibition.

Chain of Epidermal growth factor receptor (Homo sapiens, UniProt P00533, L858R/T790M) (P00533 25-1210 T790M/L858R limits assumed): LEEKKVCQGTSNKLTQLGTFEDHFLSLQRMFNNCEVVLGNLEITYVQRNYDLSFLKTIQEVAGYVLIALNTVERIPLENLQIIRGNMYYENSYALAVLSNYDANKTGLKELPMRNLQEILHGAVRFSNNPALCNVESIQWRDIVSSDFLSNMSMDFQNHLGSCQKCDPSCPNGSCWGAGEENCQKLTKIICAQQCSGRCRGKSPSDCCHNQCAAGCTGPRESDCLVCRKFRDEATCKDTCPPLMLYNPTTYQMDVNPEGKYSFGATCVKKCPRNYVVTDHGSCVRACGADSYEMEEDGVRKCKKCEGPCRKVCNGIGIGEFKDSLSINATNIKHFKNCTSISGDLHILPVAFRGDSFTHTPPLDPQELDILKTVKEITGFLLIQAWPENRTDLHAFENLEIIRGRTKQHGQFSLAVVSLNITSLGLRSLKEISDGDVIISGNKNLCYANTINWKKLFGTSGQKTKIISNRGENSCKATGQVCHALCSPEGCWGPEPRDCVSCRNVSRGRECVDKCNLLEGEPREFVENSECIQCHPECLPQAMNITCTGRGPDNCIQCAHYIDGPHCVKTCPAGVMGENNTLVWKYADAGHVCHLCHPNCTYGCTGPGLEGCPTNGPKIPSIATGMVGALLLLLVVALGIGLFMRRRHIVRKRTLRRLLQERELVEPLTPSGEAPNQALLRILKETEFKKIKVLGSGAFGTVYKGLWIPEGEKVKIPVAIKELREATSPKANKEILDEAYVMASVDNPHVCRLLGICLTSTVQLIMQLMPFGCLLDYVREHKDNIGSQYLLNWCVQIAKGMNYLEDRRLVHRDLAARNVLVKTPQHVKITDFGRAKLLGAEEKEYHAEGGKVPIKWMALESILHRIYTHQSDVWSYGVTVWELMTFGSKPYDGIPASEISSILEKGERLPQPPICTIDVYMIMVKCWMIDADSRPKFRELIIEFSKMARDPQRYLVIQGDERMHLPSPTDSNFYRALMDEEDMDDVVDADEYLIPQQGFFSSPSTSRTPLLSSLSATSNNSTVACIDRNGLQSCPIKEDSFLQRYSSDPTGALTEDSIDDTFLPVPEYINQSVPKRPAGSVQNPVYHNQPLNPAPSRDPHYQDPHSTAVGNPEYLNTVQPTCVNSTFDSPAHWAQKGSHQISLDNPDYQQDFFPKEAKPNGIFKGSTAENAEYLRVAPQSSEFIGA

Consider `C=CC(=O)Nc1ccc(OC)c(Nc2cc(-c3c(-c4ccc(F)cc4)nc(SC)n3C)ccn2)c1`, for which the values for the IC50 in test [1] and in test [2] were 111 nM and over 5000 nM, respectively.

In the case of `C=CC(=O)Nc1ccc(OC)c(Nc2cc(-c3nc(SC)n(C)c3-c3ccc(F)cc3)ccn2)c1`, the IC50 was 1 nM in test [1] and over 5000 nM in test [2].
